Source: patent publication US7087641B2, “4β-1″-[(2″-substituted benzoyl) anilino]podophyllotoxin analogues useful as anticancer agents” (Council of Scientific & Industrial Research, priority 2002, dated 2006)

The molecules below were run on tumor cell lines (assay: Cytotoxicity (in vitro)). Conditions: range of GI50 values, cell lines not named.
Format: cell-based
Source text: A program was initiated in the laboratory for the design and synthesis of new 4β-aryl amino substituted podophyllotoxin congeners with enhanced antitumour activity and/or activity against etoposide resistant tumor cell lines. In these efforts new 4β-1″-[{2″-benzoyl substituted}anilino] podophyllotoxin derivatives have been synthesized and evaluated for their cytotoxicity and anticancer potency. […] The synthesis of these compounds has been carried out as described in the scheme using podophyllotoxin obtained from the resin. The cytotoxicity of 4a–4p values have been illustrated in the Table 1.

**Q.** With `COc1cc(C2c3cc4c(cc3C(Nc3ccc(C(=O)c5ccccc5)cc3[N+](=O)[O-])C3COC(=O)C23)OCO4)cc(OC)c1O` (stereo not drawn) [4n] as the molecule, how does the GI50 read?
**A.** Its GI50 is 10 to 240 nM.

**Q.** For `COc1cc(C2c3cc4c(cc3C(Nc3ccc(Cl)cc3C(=O)c3ccccc3)C3COC(=O)C23)OCO4)cc(OC)c1O` (stereo not drawn) [4h], which GI50 is on record?
**A.** The GI50 was 14000 to 270000 nM.

**Q.** For `COc1cc([C@@H]2c3cc4c(cc3[C@@H](Nc3ccc(Cl)cc3C(=O)c3ccccc3F)[C@@H]3COC(=O)[C@H]23)OCO4)cc(OC)c1OC` [4i, 4β-1″-[2″-(2-Fluorobenzoyl)-4″-chloroanilino]-4-desoxypodophyllotoxin], which GI50 is on record?
**A.** Its GI50 is 140 to 300 nM.

**Q.** How did the GI50 turn out when `COc1cc(C2c3cc4c(cc3C(Nc3ccc(Cl)cc3C(=O)c3ccccc3)C3COC(=O)C23)OCO4)cc(OC)c1OC` (stereo not drawn) [4g, 4β-1″-[2″-(Benzoyl)-4″-chloroanilino]-4-desoxypodophyllotoxin] was run?
**A.** Its GI50 is 70 to 1100 nM.

**Q.** Which GI50 does the source give for `COc1cc(C2c3cc4c(cc3C(Nc3ccc(Cl)cc3C(=O)c3ccccc3Cl)C3COC(=O)C23)OCO4)cc(OC)c1O` (stereo not drawn) [4d, 4′-O-Demethyl-4β-1″-[2″-(2-Chlorobenzoyl)-4″-chloroanilino]-4-desoxypodo-phyllotoxin] here?
**A.** Its GI50 is 100 to 240 nM.

**Q.** Which GI50 does the source give for `COc1cc([C@@H]2c3cc4c(cc3[C@@H](Nc3ccc([N+](=O)[O-])cc3C(=O)c3ccccc3)[C@@H]3COC(=O)[C@H]23)OCO4)cc(OC)c1O` [4f] here?
**A.** Its GI50 is 10 to 240 nM.

**Q.** With `COc1cc([C@@H]2c3cc4c(cc3[C@@H](Nc3ccccc3C(=O)c3ccccc3)[C@@H]3COC(=O)[C@H]23)OCO4)cc(OC)c1OC` [4a, 4β-1″-[2″-(Benzoyl)anilino]-4-desoxypodophyllotoxin] as the molecule, how does the GI50 read?
**A.** The GI50 was 40 to 500 nM.

**Q.** For `COc1cc(C2c3cc4c(cc3C(Nc3ccc(Cl)cc3C(=O)c3ccccc3F)C3COC(=O)C23)OCO4)cc(OC)c1O` (stereo not drawn) [4j, 4′-O-Demethyl-4β-1″-[2″-(2-Fluorobenzoyl)-4″-chloroanilino]-4-desoxypodo-phyllotoxin], which GI50 is on record?
**A.** Its GI50 is 4 to 100 nM.

**Q.** How did the GI50 turn out when `COc1cc([C@@H]2c3cc4c(cc3[C@@H](Nc3cccc(C(=O)c5ccccc5)c3)[C@@H]3COC(=O)[C@H]23)OCO4)cc(OC)c1O` [4l, 4′-O-Demethyl-4β-1″-[3″-(benzoyl)anilino]-4-desoxypodophyllotoxin] was run?
**A.** Its GI50 is 2000 to 16000 nM.

**Q.** For `COc1cc([C@@H]2c3cc4c(cc3[C@@H](Nc3cccc(C(=O)c5ccccc5)c3)[C@@H]3COC(=O)[C@H]23)OCO4)cc(OC)c1OC` [4k, 4β-1″-[3″-(Benzoyl)anilino]-4-desoxypodophyllotoxin], which GI50 is on record?
**A.** Its GI50 is 100 to 1000 nM.

**Q.** `COc1cc([C@@H]2c3cc4c(cc3[C@@H](Nc3ccc(Cl)cc3C(=O)c3ccccc3Cl)[C@@H]3COC(=O)[C@H]23)OCO4)cc(OC)c1OC` [4c, 4β-1″-[2″-(2-Chlorobenzoyl)-4″-chloroanilino]-4-desoxypodophyllotoxin] was tested. Which GI50 did it give?
**A.** The GI50 was 59 to 876 nM.

**Q.** Which GI50 does the source give for `COc1cc([C@@H]2c3cc4c(cc3[C@@H](Nc3ccccc3C(=O)c3ccccc3)[C@@H]3COC(=O)[C@H]23)OCO4)cc(OC)c1O` [4b, 4′-O-Demethyl-4β-1″-[2″-(benzoyl)anilino]-4-desoxypodophyllotoxin] here?
**A.** Its GI50 is 15000 to 382000 nM.
